Tests used:
Assay in all cases: relative viability (nuclei count vs DMSO), 5 days (fraction); higher = more cells survive
[1] = compound: CCn1c(-c2nonc2N)nc2cnc(Oc3cccc(NC(=O)c4ccc(OCCN5CCOCC5)cc4)c3)cc21 + CCNC(=O)c1noc(-c2cc(C(C)C)c(O)cc2O)c1-c1ccc(CN2CCOCC2)cc1 [Luminespib] (partner 0.01 µM)
How it was run: (§1)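 A single step with final 0.05% Triton X-100, 1% formaldehyde and 1 ug/ml Hoechst fixed the cells and stained nuclei 5 days after treatment. Lung cancer cell lines in 1536-well plates had been treated by pin tool the day after seeding with one drug alone or a fixed anchor-drug dose plus five library-drug doses (not always all listed) in √10 steps, and nuclei were counted on 4× images. Relative viability is the ratio of nuclei in treated wells to nuclei in vehicle wells, taken as the median of duplicate plates.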

Mirin + Luminespib = compound: N=C1NC(=O)/C(=C/c2ccc(O)cc2)S1 [Mirin] + CCNC(=O)c1noc(-c2cc(C(C)C)c(O)cc2O)c1-c1ccc(CN2CCOCC2)cc1 [Luminespib] (partner 0.01 µM)
How it was run: as §1

Mirin + Crizotinib = compound: N=C1NC(=O)/C(=C/c2ccc(O)cc2)S1 [Mirin] + C[C@@H](Oc1cc(-c2cnn(C3CCNCC3)c2)cnc1N)c1c(Cl)ccc(F)c1Cl [Crizotinib] (partner 1 µM)
How it was run: as §1

Mirin + Phenformin = compound: N=C1NC(=O)/C(=C/c2ccc(O)cc2)S1 [Mirin] + N=C(N)NC(=N)NCCc1ccccc1 [Phenformin] (partner 250 µM)
How it was run: as §1

Cell Line	relative viability ([1]; first compound 0.04 µM)	relative viability ([1]; first compound 0.1265 µM)	relative viability ([1]; first compound 1.265 µM)	relative viability ([1]; first compound 4 µM)	relative viability (Mirin + Luminespib; first compound 0.25 µM)	relative viability (Mirin + Luminespib; first compound 0.7906 µM)	relative viability (Mirin + Luminespib; first compound 2.5 µM)	relative viability (Mirin + Luminespib; first compound 7.906 µM)	relative viability (Mirin + Luminespib; first compound 25 µM)	relative viability (Mirin + Crizotinib; first compound 0.25 µM)	relative viability (Mirin + Crizotinib; first compound 0.7906 µM)	relative viability (Mirin + Crizotinib; first compound 2.5 µM)	relative viability (Mirin + Crizotinib; first compound 7.906 µM)	relative viability (Mirin + Crizotinib; first compound 25 µM)	relative viability (Mirin + Phenformin; first compound 0.25 µM)	relative viability (Mirin + Phenformin; first compound 0.7906 µM)	relative viability (Mirin + Phenformin; first compound 2.5 µM)	relative viability (Mirin + Phenformin; first compound 7.906 µM)	relative viability (Mirin + Phenformin; first compound 25 µM)	relative viability ([1]; first compound 0.4 µM)
NCI-H358	0.667	0.302	0.535	0.198	0.562	0.408	0.502	0.36	0.413	0.553	0.678	0.536	0.329	0.243	0.344	0.347	0.318	0.313	0.213	–
RERF-LC-KJ	1.35	1.21	0.795	0.64	1.25	1.25	1.36	1.2	1.18	0.845	0.894	0.821	0.845	0.913	0.37	0.543	0.418	0.487	0.461	1.04
NCI-H1792	0.477	0.21	0.299	0.308	0.34	0.461	0.438	–	0.423	1.02	1.01	1.05	0.864	0.963	0.351	0.369	0.306	0.245	0.264	0.47
NCI-H647	0.18	0.139	0.106	0.116	0.115	0.11	0.17	0.241	0.09	1.07	1.3	1.24	1.08	0.596	0.613	0.455	0.521	0.542	0.36	0.269
SK-LU-1	0.231	0.155	0.159	0.172	0.193	0.188	0.228	0.163	0.197	0.888	1.05	1.01	0.765	0.564	0.643	0.486	0.522	0.497	0.44	0.189
NCI-H441	0.333	0.342	0.326	0.416	0.377	0.321	0.343	0.269	0.282	0.856	0.794	0.701	0.365	0.706	0.763	0.876	0.782	0.718	0.628	–
COR-L 105	0.657	0.282	0.445	0.247	0.741	0.852	0.692	0.51	0.544	0.781	0.996	0.714	0.855	0.697	0.551	0.495	0.479	0.583	0.462	0.592
NCI-H1993	0.891	0.768	0.692	0.664	0.777	–	0.778	0.729	0.734	0.757	0.82	0.845	0.926	0.788	0.459	–	0.517	0.586	0.623	1.02

Source: the supplement of paper PMC10307832
